We go through one substance from patent US20250122567A1, “Methods of Identifying and Treating Subjects having Inflammatory Subphenotypes of Asthma” (National Jewish Health, priority 2015, published 2025).

The subject of one test is HRV-16. Description: HRV-16 infection of ALI differentiated airway epithelial cells treated with IL-13. In kind it is cell-based, human rhinovirus-16. Particulars: IL-13 10 ng/ml for final 10 days of differentiation, BECs and NECs, vs vehicle.
In a further test the test system is DPP4. Description: IL-13 treatment of ALI differentiated bronchial epithelial cells, DPP4 expression. In kind it is cell-based. Particulars: IL-13 10 ng/ml, 24 hours. The protocol: FIGS. 12A and 12B show pairs of Air-liquid interface (ALI) differentiated bronchial epithelial cells (BEC) from 5 donors that were treated for 24 hours with IL-13 cytokine (10 ng/ml) and vehicle control. (FIG. 12A) RNA was extracted from all control and IL-13 treated ALI membranes. RNA was used in 5′ nuclease qPCR assays to determine DPP4 and housekeeping gene expression. Normalized DPP4 expression for the control and IL-13 treated cultures of a subject are connected by a line. Well-differential nasal airway epithelial cultures were generated and tested for a single donor denoted by red points. (FIG. 12B) Western blot of cell lysates for DPP4 in control and IL-13 treated BECs from all five donors.

On to “IL-13: Th2 cytokine used to treat airway epithelial cell cultures (10 ng/ml)”, for which the “HRV-16 infection (mRNA) of ALI differentiated airway epithelial cells” value with HRV-16 is given as “decreases HRV-16 infection”. In the test on DPP4 (ALI differentiated BEC from 5 donors, qPCR, vs vehicle control), the “DPP4 gene expression in airway epithelial cells” value was “strongly induced”. Further, the “DPP4 protein expression in airway epithelial cells” value in the test with DPP4 (BEC cell lysates from five donors, Western blot, vs control) is reported as “strongly induced”.
